Assay results published in US9790169B2, “IDO inhibitors” (BRISTOL-MYERS SQUIBB COMPANY, priority 2015, dated 2017).

biological target: human IDO1 (Homo sapiens, UniProt P14902); test: Assessment of human IDO-1 inhibitory activity in HEK cells (human IDO1/HEK293 cells, kynurenine read-out with Ehrlich reagent, absorbance 490 nm); type: cell-based; set-up: expressed in transfected cells; details: HEK Human IDO-1 cellular assay
Procedure, shortened: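 Kynurenine output from stably IDO1-transfected HEK293 cells (10,000/well, phenol red-free RPMI, 10% FBS) after 20 h compound exposure at 37 °C. The reaction was stopped with 0.2% TCA and heated 30 min at 50 °C, then the supernatant was mixed with Ehrlich reagent and read at 490 nm. IC50 was set against DMSO and a 500 nM reference standard as 0 and 100% inhibition.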

Sequence of human IDO1 (P14902 whole entry): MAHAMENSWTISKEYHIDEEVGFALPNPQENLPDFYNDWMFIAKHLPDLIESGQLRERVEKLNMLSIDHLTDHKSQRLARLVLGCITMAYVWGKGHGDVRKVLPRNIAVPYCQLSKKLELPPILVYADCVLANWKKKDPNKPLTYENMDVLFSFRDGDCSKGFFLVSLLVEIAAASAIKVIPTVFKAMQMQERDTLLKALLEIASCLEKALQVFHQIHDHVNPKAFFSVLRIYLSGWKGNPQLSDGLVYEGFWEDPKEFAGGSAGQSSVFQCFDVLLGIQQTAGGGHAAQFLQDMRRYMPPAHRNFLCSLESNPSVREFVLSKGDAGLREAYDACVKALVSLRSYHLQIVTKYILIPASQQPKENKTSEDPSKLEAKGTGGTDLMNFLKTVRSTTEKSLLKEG

Row | IC50 [nM] | SMILES
1 | < 5 | CCC(CC(=O)O)c1ccc(N2CCOC[C@H]2C(C)C)c(Nc2ccc(F)cc2)c1 (single isomer, unassigned) [Example 901]
2 | < 5 | CCc1ccc(Nc2cc(C(CC)CC(=O)O)ccc2N2CCOC[C@H]2C(C)C)cc1 (single isomer, unassigned) [Example 902]
3 | < 50 | CCOc1ncc(Nc2cc(C(CC)CC(=O)O)ccc2N2CCOC[C@H]2C(C)C)cn1 (single isomer, unassigned) [Example 903]
4 | < 5 | CCC(CC(=O)O)c1ccc(N2CCOC[C@H]2C(C)C)c(Nc2ccc3c(c2)OC(F)(F)O3)c1 (single isomer, unassigned) [Example 904]
5 | > 50 | CCC(CC(=O)O)c1ccc(N2CCOC[C@H]2C(C)C)c(Nc2cnc(OCC3CC3)nc2)c1 (single isomer, unassigned) [Example 905]
6 | < 50 | CCC(CC(=O)O)c1ccc(N2CCOC[C@H]2C(C)C)c(Nc2cnc(OC)nc2)c1 (single isomer, unassigned) [Example 906]
7 | < 50 | COCC(CC(=O)O)c1cc(F)c(N(CC(C)C)CC(C)C)c(Nc2ccc3c(c2)OC(F)(F)O3)c1 (single isomer, unassigned) [Example 927, 3-(3-((2,2-difluorobenzo[d] [1,3]dioxol-5-yl)amino)-4-(diisobutylamino)-5-fluorophenyl)-4-methoxybutanoic acid.]
8 | > 50 | Cc1ccc(CC(=O)Nc2cc(C(C)CC(=O)O)ccc2N(CC(C)C)CC(C)C)cc1 (single isomer, unassigned) [Example 953, 3-(4-(Diisobutylamino)-3-(2-(p-tolyl)acetamido)phenyl)butanoic acid]
9 | < 50 | Cc1ccc(CC(=O)Nc2cc(C(C)CC(=O)O)ccc2N(CC(C)C)CC(C)C)cc1 (single isomer, unassigned) [Example 954, 3-(4-(Diisobutylamino)-3-(2-(p-tolyl)acetamido)phenyl)butanoic acid]
10 | < 5 | Cc1ccc(NC(=O)Nc2cc(C(C)CC(=O)O)c(F)cc2N(CC(C)C)C2CCCCC2)cc1 (single isomer, unassigned) [Example 956, 3-(4-(Cyclohexyl(isobutyl)amino)-2-fluoro-5-(3-(p-tolyl)ureido)phenyl)butanoic acid]
11 | < 50 | Cc1ccc(NC(=O)Nc2cc(C(C)CC(=O)O)ccc2N(CC(C)C)C2CCOCC2)cc1 (single isomer, unassigned) [Example 958, 3-(4-(Isobutyl(tetrahydro-2H-pyran-4-yl)amino)-3-(3-(p-tolyl)ureido)phenyl)butanoic acid]
12 | < 50 | CCOc1ccc(NC(=O)Nc2cc(C(C)CC(=O)O)ccc2N(CC(C)C)C2CCOCC2)cc1 (single isomer, unassigned) [Example 960, 3-(3-(3-(4-ethoxyphenyl)ureido)-4-(isobutyl(tetrahydro-2H-pyran-4-yl)amino)phenyl)butanoic acid]
13 | > 50 | CC(C)CN(c1ccc(C(C)CC(=O)O)cc1NC(=O)Nc1cncnc1)C1CCOCC1 (single isomer, unassigned) [Example 961, 3-(4-(isobutyl(tetrahydro-2H-pyran-4-yl)amino)-3-(3-(pyrimidin-5-yl)ureido)phenyl)butanoic acid]
14 | > 50 | CCOc1ccc(NC(=O)Nc2cc(C(C)CC(=O)O)ccc2N(CC(C)C)C2CCOCC2)cc1 (single isomer, unassigned) [Example 963, 3-(3-(3-(4-ethoxyphenyl)ureido)-4-(isobutyl(tetrahydro-2H-pyran-4-yl)amino)phenyl)butanoic acid]
15 | < 50 | Cc1ccc(CC(=O)Nc2cc(C(C)CC(=O)O)ccc2N(CC(C)C)C2CCOCC2)cc1 (single isomer, unassigned) [Example 966, 3-(4-(Isobutyl(tetrahydro-2H-pyran-4-yl)amino)-3-(2-(p-tolyl)acetamido)phenyl)butanoic acid]
16 | < 50 | CC(C)CN(c1ccc(C(C)CC(=O)O)cc1Nc1nc2ccccc2o1)C1CCOCC1 (single isomer, unassigned) [Example 968, 3-(3-(Benzo[d]oxazol-2-ylamino)-4-(isobutyl(tetrahydro-2H-pyran-4-yl)amino)phenyl)butanoic acid]
17 | > 50 | CC(C)CN(c1ccc(C(C)CC(=O)O)cc1Nc1nc2ccccc2o1)C1CCOCC1 (single isomer, unassigned) [Example 969, 3-(3-(Benzo[d]oxazol-2-ylamino)-4-(isobutyl(tetrahydro-2H-pyran-4-yl)amino)phenyl)butanoic acid]
18 | < 5 | CCC(CC(=O)O)c1cc(F)c(N(CC(C)C)CC(C)C)c(NC(=O)Cc2ccc(F)cc2F)c1 (single isomer, unassigned) [Example 1093 E1]
19 | < 5 | CCC(CC(=O)O)c1cc(F)c(N(CC(C)C)CC(C)C)c(NC(=O)Cc2ccc(F)cc2F)c1 (single isomer, unassigned) [Example 1093 E2]
20 | < 5 | CCC(CC(=O)O)c1cc(F)c(N(CC(C)C)CC(C)C)c(NC(=O)Cc2ccc(C)cc2F)c1 (single isomer, unassigned) [Example 1094 E1]
21 | < 5 | CCC(CC(=O)O)c1cc(F)c(N(CC(C)C)CC(C)C)c(NC(=O)Cc2ccc(C)cc2F)c1 (single isomer, unassigned) [Example 1094 E2]
22 | < 5 | CCC(CC(=O)O)c1ccc(N(CC(C)C)C2CCCCC2)c(NC(=O)Cc2ccc(Cl)cc2F)c1 (single isomer, unassigned) [Example 1096 E1]
23 | < 5 | CCC(CC(=O)O)c1ccc(N(CC(C)C)C2CCCCC2)c(NC(=O)Cc2ccc(Cl)cc2F)c1 (single isomer, unassigned) [Example 1096 E2]
24 | < 5 | CCC(CC(=O)O)c1ccc(N(CC(C)C)C2CCCCC2)c(NC(=O)Cc2cc(F)ccc2F)c1 (single isomer, unassigned) [Example 1098 E1]
25 | < 5 | CCC(CC(=O)O)c1ccc(N(CC(C)C)C2CCCCC2)c(NC(=O)Cc2cc(F)ccc2F)c1 (single isomer, unassigned) [Example 1098 E2]
26 | < 5 | CCC(CC(=O)O)c1ccc(N(CC(C)C)CC(C)C)c(NC(=O)Cc2ccc(C)cc2)c1 (single isomer, unassigned) [Example 1103 E1, 3-(4-(Diisobutylamino)-3-(2-(p-tolyl)acetamido)phenyl)pentanoic acid]
27 | < 5 | CCC(CC(=O)O)c1ccc(N(CC(C)C)CC(C)C)c(NC(=O)Cc2ccc(C#N)cc2)c1 (single isomer, unassigned) [Example 1104, 3-(3-(2-(4-Cyanophenyl)acetamido)-4-(diisobutylamino)phenyl)pentanoic acid]
28 | < 5 | CCC(CC(=O)O)c1cc(NC(=O)Nc2ccc(C)cc2)c(N(CC(C)C)C2CCCCC2)cc1F (single isomer, unassigned) [Example 1106, 3-(4-(Cyclohexyl(isobutyl)amino)-2-fluoro-5-(3-(p-tolyl)ureido)phenyl)pentanoic acid]
29 | < 5 | CCOc1ccc(NC(=O)Nc2cc(C(CC)CC(=O)O)c(F)cc2N(CC(C)C)C2CCCCC2)cc1 (single isomer, unassigned) [Example 1108, 3-(4-(Cyclohexyl(isobutyl)amino)-5-(3-(4-ethoxyphenyl)ureido)-2-fluorophenyl)pentanoic acid]
